Where two headings read alike, the source gives them in different places.
How the values were obtained:
[1] = molecular target: DOR (Homo sapiens (Human), UniProt P41143); assay: Competition binding assay at DOR ([3H]DPN, CHO cell membranes)
Protocol: (§1) Chinese hamster ovary (CHO) cells expressing MOR, KOR and DOR were cultured for use in this assay. The culture media used for MOR CHO cells contained 500 mL DMEM/F12 media, 10% FBS, 1% penicillin/streptomycin, and 2.75 mL G418. The DOR and KOR CHO cells were cultured in the same media except that 5% FBS was used instead of 10%. The cells are allowed to grow until they are 80-95% confluent after which they are split. The cells are continuously cultured and split until there were sufficient cells for the studies.
(§2) Once the cells reached confluence, cells were harvested, centrifuged at 1000×g for 10 minutes, and suspended in membrane buffer (50 mM Tris, 3 mM MgCl2, and 1 mM EGTA, pH 7.4). The cells were then homogenized, centrifuged at 50000×g for 10 minutes, and re-homogenized in membrane buffer. A Bradford assay was conducted to determine membrane protein concentrations, and membrane protein preps (3 μg/aliquot) were stored at −80° C.
(§3) The competition binding assay was conducted to determine the affinity and selectivity of the synthesized compounds to MOR over KOR and DOR. The Kd and Bmax values for [^3H]NLX at MOR and [^3H]DPN at KOR had been determined previously. […] [^3H]NLX was used to label MOR whilst [^3H]DPN was used to label both DOR and KOR. The potency of the new compounds in displacing the specific binding of the radioligand was determined by linear regression analysis of Hill plots. […] The IC50 values were determined and converted to Ki values using the Cheng—Prusoff equation (Rosenblum, A. et al. Exp Clin Psychopharmacol. 2008, 16 (5), 405-416).

[2] = molecular target: KOR (Homo sapiens (Human), UniProt P41145); assay: Competition binding assay at KOR ([3H]DPN, CHO cell membranes)
Protocol: as §1, §2, §3

[3] = molecular target: MOR (Mus musculus, UniProt P42866); format: biochemical; settings: relative to 3 μM DAMGO at MOR
Protocol: The [^35S]GTPγS functional assay was used to determine whether the synthesized compounds are agonists. The agonist's activity of the compounds was measured relative to 3 μM DAMGO at MOR. In this assay, upon receptor activation due to agonist binding, [^35S]GTPγS binds to the Gα subunit. Thus, [^35S]GTPγS replaces endogenous GTP and since the γ-thiophosphate bond is resistant to hydrolysis by GTPase, [^35S]GTPγS labelled Gα subunits accumulate and can be quantified by measuring the amount of incorporated [^35S].
The Bradford assay was then conducted to determine the concentration of the membrane protein using BSA as the standard. Suitable dilutions of membrane protein, [^35S]GTPγS), cold GTPγS, DAMGO and GDP were made in TME. The desired amount of the protein per tube was 10 μg. All the test-tubes were vortexed and incubated in the shaking water bath at 30° C. for 90 minutes, after which bound radioligand was filtered and rinsed three times with cold Tris buffer. The filtered bound radioligand was then transferred into scintillation tubes with 4 mL of scintillation fluid and radioligand was quantified. However, counting was delayed for 9 hrs to allow the radioactivity to enter the solution. Percent DAMGO stimulation was defined as (net stimulated binding of test compound/net stimulated binding of DAMGO)×100%. The normalized data were subjected to nonlinear regression analysis to determine EC50 and Emax values using Prism 6.0 software (GraphPad Software, San Diego, Calif.). The assay was performed in triplicate and repeated at least three times.

[4] = [3H]DPN, DOR CHO membranes, read-out: Ki (nM) ± SEM δ
[5] = [3H]DPN, KOR CHO membranes, read-out: Ki (nM) ± SEM κ

DOR, sequence (P41143 whole entry, looked up): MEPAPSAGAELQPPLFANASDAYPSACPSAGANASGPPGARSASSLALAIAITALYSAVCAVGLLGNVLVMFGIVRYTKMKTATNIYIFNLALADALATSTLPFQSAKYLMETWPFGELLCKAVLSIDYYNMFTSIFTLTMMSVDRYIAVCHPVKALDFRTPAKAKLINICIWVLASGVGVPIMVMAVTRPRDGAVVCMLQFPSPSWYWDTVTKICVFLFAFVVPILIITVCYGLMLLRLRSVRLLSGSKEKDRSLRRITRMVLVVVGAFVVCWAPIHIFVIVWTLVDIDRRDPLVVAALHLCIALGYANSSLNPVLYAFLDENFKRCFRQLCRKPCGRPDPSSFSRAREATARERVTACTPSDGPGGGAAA
MOR, sequence (P42866 whole entry, looked up): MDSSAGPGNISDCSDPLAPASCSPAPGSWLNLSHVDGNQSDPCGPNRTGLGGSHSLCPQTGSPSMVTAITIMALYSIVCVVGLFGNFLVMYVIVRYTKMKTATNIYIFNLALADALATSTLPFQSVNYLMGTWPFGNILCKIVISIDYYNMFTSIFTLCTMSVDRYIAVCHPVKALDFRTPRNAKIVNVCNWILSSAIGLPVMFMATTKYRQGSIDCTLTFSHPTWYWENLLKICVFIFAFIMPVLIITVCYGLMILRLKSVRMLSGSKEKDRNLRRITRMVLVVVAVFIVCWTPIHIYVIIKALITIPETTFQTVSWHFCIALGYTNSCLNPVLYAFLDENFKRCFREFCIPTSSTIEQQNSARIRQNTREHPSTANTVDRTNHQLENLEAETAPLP

Compound | Ki [1] | Ki [2] | Emax(% DAMGO) ± SEM [3] | Ki [1, 4] | Ki [2, 5]
Cl.O=C(N[C@@H]1CC[C@@]2(O)[C@H]3Cc4ccc(O)c5c4[C@@]2(CCN3CC2CC2)[C@H]1O5)c1ccc2[nH]ccc2c1 [Compound 13, 17-Cyclopropylmethyl-3,14β-dihydroxy-4,5α-epoxy-6β-(indole-5-carboxamido)morphinan] | 17.7 ± 4.78 nM | 0.512 ± 0.038 nM | 20.15 ± 4.37 % DAMGO |  | 
O=C(N[C@@H]1CC[C@@]2(O)[C@H]3Cc4ccc(O)c5c4[C@@]2(CCN3CC2CC2)[C@H]1O5)c1ccc2cc[nH]c2c1 [Compound 14, 17-Cyclopropylmethyl-3,14β-dihydroxy-4,5α-epoxy-6β-(indole-6-carboxamido)morphinan] | 6.23 ± 0.825 nM | 0.166 ± 0.012 nM |  |  | 
Cl.O=C(CCCc1c[nH]c2ccccc12)N[C@H]1CC[C@@]2(O)[C@H]3Cc4ccc(O)c5c4[C@@]2(CCN3CC2CC2)[C@H]1O5 [Compound 9, 17-Cyclopropylmethyl-3,14β-dihydroxy-4,5α-epoxy-6α-[4-(indol-3-yl)butanamido)morphinan] |  |  | 48.36 ± 5.17 % DAMGO | 6.73 ± 0.396 nM | 0.149 ± 0.033 nM
Cl.O=C(N[C@H]1CC[C@@]2(O)[C@H]3Cc4ccc(O)c5c4[C@@]2(CCN3CC2CC2)[C@H]1O5)c1cccc2[nH]ccc12 [Compound 3, 17-Cyclopropylmethyl-3,14β-dihydroxy-4,5α-epoxy-6α-(indole-4-carboxamido)morphinan] |  |  | 28.9 ± 1 % DAMGO | 9.26 ± 2.83 nM | 1.49 ± 0.349 nM
Cl.O=C(N[C@H]1CC[C@@]2(O)[C@H]3Cc4ccc(O)c5c4[C@@]2(CCN3CC2CC2)[C@H]1O5)c1ccc2cc[nH]c2c1 [Compound 5, 17-Cyclopropylmethyl-3,14β-dihydroxy-4,5α-epoxy-6α-(indole-6-carboxamido)morphinan] |  |  | 27.0 ± 0.31 % DAMGO | 12.8 ± 3.36 nM | 1.63 ± 0.277 nM
Cl.O=C(Cc1c[nH]c2ccccc12)N[C@H]1CC[C@@]2(O)[C@H]3Cc4ccc(O)c5c4[C@@]2(CCN3CC2CC2)[C@H]1O5 [Compound 7, 17-Cyclopropylmethyl-3,14β-dihydroxy-4,5α-epoxy-6α-[2-(indol-3-yl)acetamido)morphinan] |  |  | 33.88 ± 1.43 % DAMGO | 9.17 ± 2.67 nM | 3.13 ± 0.449 nM
Cl.O=C(CCc1c[nH]c2ccccc12)N[C@H]1CC[C@@]2(O)[C@H]3Cc4ccc(O)c5c4[C@@]2(CCN3CC2CC2)[C@H]1O5 [Compound 8, 17-Cyclopropylmethyl-3,14β-dihydroxy-4,5α-epoxy-6α-[3-(indol-3-yl)propanamido)morphinan] |  |  | 41.10 ± 6.54 % DAMGO | 31.2 ± 8.12 nM | 1.36 ± 0.178 nM
Cl.O=C(N[C@@H]1CC[C@@]2(O)[C@H]3Cc4ccc(O)c5c4[C@@]2(CCN3CC2CC2)[C@H]1O5)c1cccc2[nH]ccc12 [Compound 12, 17-Cyclopropylmethyl-3,14β-dihydroxy-4,5α-epoxy-6β-(indole-4-carboxamido)morphinan] | 45.9 ± 16.3 nM | 1.94 ± 0.299 nM | 15.21 ± 3.13 % DAMGO |  | 
Cl.O=C(N[C@H]1CC[C@@]2(O)[C@H]3Cc4ccc(O)c5c4[C@@]2(CCN3CC2CC2)[C@H]1O5)c1cc2ccccc2[nH]1 [Compound 1, 17-Cyclopropylmethyl-3,14β-dihydroxy-4,5α-epoxy-6α-(indole-2-carboxamido)morphinan] |  |  | 52.0 ± 13.5 % DAMGO | 14.2 ± 2.78 nM | 0.926 ± 0.125 nM
O=C(N[C@@H]1CC[C@@]2(O)[C@H]3Cc4ccc(O)c5c4[C@@]2(CCN3CC2CC2)[C@H]1O5)c1c[nH]c2ccccc12 [Compound 11, 17-Cyclopropylmethyl-3,14β-dihydroxy-4,5α-epoxy-6β-(indole-3-carboxamido)morphinan] | 7.17 ± 1.23 nM | 0.16 ± 0.005 nM |  |  | 
Cl.O=C(N[C@H]1CC[C@@]2(O)[C@H]3Cc4ccc(O)c5c4[C@@]2(CCN3CC2CC2)[C@H]1O5)c1ccc2[nH]ccc2c1 [Compound 4, 17-Cyclopropylmethyl-3,14β-dihydroxy-4,5α-epoxy-6α-(indole-5-carboxamido)morphinan] |  |  | 32.2 ± 1.3 % DAMGO | 26.7 ± 7.72 nM | 3.45 ± 0.994 nM

Reference: US10988481B2, “Potent and selective mu opioid receptor modulators” (VIRGINIA COMMONWEALTH UNIVERSITY, priority 2016, dated 2021)
